≈ marks a conversion by molar mass, not a printed value. Positions of bridges follow the written chain, without caps; N, C: chain ends. Non-standard residues stand in square brackets, D forms with d. Residues, ends and D or L forms follow the SMILES beside them. *: point of attachment. Ileψ(thiazoline)Cys = CC[C@H](C)[C@H](N)C1=N[C@H](C(=O)*)CS1; dOrn = NCCC[C@@H](N)C(=O)O
Key:
B. subtilis = test: Sublethal antibiotic concentration determination (growth-rate monitoring); type: cell-based, Bacillus subtilis str. 168; conditions: for Sublethal concentration (highest antibiotics concentration that did not cause growth-rate inhibition): Table 2; for Sublethal concentrations of antibiotics used in this study: Table 6
Procedure: (§1) A sublethal concentration for the antibiotics lincomycin, erythromycin, chloramphenicol, kanamycin, ofloxacin, ampicilin and bacitracin (Sigma) was determined for each of the organisms used in this study as follows. Bacterial cultures were propagated in LB or BHI O.N. in triplicates and diluted 1:200 into fresh media. Cultures were grown to early exponential phase (OD600=0.1-0.2) and then supplemented with serially diluted antibiotics stocks. The growth rate was dynamically monitored in intervals of 10-15 min using a 96 well plate format OD reader (Infinite M200 Tecan) for a period of at least 4 hours. […] To identify antibiotic-responsive regulators, bacteria were grown in LB or BHI in triplicates as described above and, upon reaching early exponential phase, 5 ml cultures were independently exposed for 15 minutes to the sublethal concentration of each antibiotic as determined above. Bacteria were then collected by centrifugation, flash frozen and stored in −80° C. until RNA extraction.

L. monocytogenes = test: as above; type: cell-based, Listeria monocytogenes EGDe; conditions: for Sublethal concentration (highest antibiotics concentration that did not cause growth-rate inhibition): Table 2; for Sublethal concentrations of antibiotics used in this study: Table 6
Procedure: as §1

E. faecalis = test: as above; type: cell-based, Enterococcus faecalis ATCC 29212; conditions: for Sublethal concentration (highest antibiotics concentration that did not cause growth-rate inhibition): Table 2; for Sublethal concentrations of antibiotics used in this study: Table 6
Procedure: as §1

[1] = system: lmo1652 regulatory element (rli59); test: Antibiotic-dependent transcriptional readthrough by term-seq and RNA-seq; type: cell-based, L. monocytogenes
Procedure: as §1
(§2) Term-seq average coverage across triplicates was calculated for the premature termination site and the full length gene termination site with a span of 10 nt surrounding each terminator, and the fraction of full length (gene) terminations out of all termination events was used to as a measure of the transcriptional readthrough (FIG. 3A). In cases where the regulator controlled the transcription of a multi-gene operon, which contained internal TSSs in addition to the primary one, RNA-seq was used to determine readthrough in the first gene (FIGS. 4C and 4F). RNA-seq coverage was used to measure the median read coverage over either the regulatory element or the gene, and the ratio between the two (gene-coverage divided by regulator-coverage) was used as an estimate for the short/long transcript ratio generated by regulator activity (FIG. 3A).

L. monocytogenes Wt = test: Minimal inhibitory concentration (MIC) determination in broth; type: cell-based; conditions: Listeria monocytogenes, 48 h, BHI, two days at 37° C.
Procedure: (§3) The MIC was determined in broth culturing conditions in the presence of serially diluted antibiotic concentrations. Briefly, the bacterial strains were grown O.N. at 37° C. in BHI agarose plates and 1-3 single colonies were collected into 1 ml of BHI broth. The OD600 was adjusted to 0.01 and then diluted 1:10 into a 96-well plate containing a final volume of 200 μl BHI supplemented with two-fold serial dilutions of lincomycin, erythromycin and chloramphenicol.

[2] = system: L. monocytogenes ΔAnti-terminator; test: as above; type: cell-based; conditions: Listeria monocytogenes, 48 h
Excerpt: (§4) For mutant generation with pMAD-based plasmids^59, ˜600 nt regions of complementarity both upstream and downstream of a targeted region were either ordered as gBlocks (IDT) and amplified with gBlock-Up and Down oligonucleotides (Table 1) complimentary to uniform flanks on each gBlock corresponding to the 40 nts on either side of the pMAD multi-cloning site, or PCR amplified with Phusion High fidelity polymerase and reagents (Finnzymes, F-553) using genomic DNA as a template and then joined by a second splice overlap extension PCR reaction using the first two PCR products as template to generate a Upstream-Downstream (UD) PCR product (Table 1, lmo0919 deletion). PCR products were subsequently purified with QIAquick PCR purification columns (Qiagen, 28104), digested with the SalI and XmaI restriction enzymes (NEB), purified again as before, and ligated into SalI/XmaI digested pMAD plasmid for 1 hr at 25° C. with T4 DNA ligase (NEB, M0202S). 2 μl of each ligation were transformed into chemically competent E. coli Top10 (Invitrogen, C404003) cells according to the manufacturer's instructions. Transformants were screened by PCR and Sanger sequencing for the presence of the appropriate insert. Electrocompetent L. monocytogenes strains were transformed with the respective plasmid and mutagenesis carried out as described previously^59. Briefly, after transformation and plating onto selective BHI, 5 ug/ml erythromycin (Em) 80 ug/ml 5-bromo-4-chloro-3-indolyl-β-D-galactopyranoside (X-gal) plates, bacteria were grown at 30° C. for two days. A single blue colony was picked and transferred to liquid BHI broth and grown for an additional 6 hrs at 30° C. The colony was then diluted 1:1000 into 10 ml of BHI-Em and grown O.N. at 42° C., which prevents pMAD replication in the cytosol owing to a temperature sensitive ori. Serial dilutions were plated onto BHI-X-gal-Em plates and grown for two days at 42° C., and the process was reiterated several times until white colonies, in which the plasmid integrated into the genome, were recovered. Colonies were screened by colony PCR, and mutants were confirmed by Sanger sequencing.
as §3

[3] = system: L. monocytogenes ΔAnti-anti-terminator; test: as above; type: cell-based; conditions: Listeria monocytogenes, 48 h
Excerpt: as §4, §3

[4] = system: L. monocytogenes uORF ATG > ACG; test: as above; type: cell-based; conditions: Listeria monocytogenes, 48 h
Excerpt: as §4, §3

[5] = system: msrC (EF1413) termination-based regulator; test: Antibiotic-dependent transcriptional readthrough by term-seq and RNA-seq; type: cell-based, E. faecalis; conditions: upon exposure to the antibiotic
Procedure: as §1
(§5) Term-seq average coverage across triplicates was calculated for the premature termination site and the full length gene termination site with a span of 10 nt surrounding each terminator, and the fraction of full length (gene) terminations out of all termination events was used to as a measure of the transcriptional readthrough (FIG. 3A). […]

[6] = system: L. monocytogenes Δlmo0919; test: Minimal inhibitory concentration (MIC) determination in broth; type: cell-based, Listeria monocytogenes; conditions: for MIC: Listeria monocytogenes, 48 h
Excerpt: as §4, with “Serial dilutions were plated onto BHI-X-gal-Em plates and grown for two days at 42° C., and the process was reiterated several times until white colonies, in which the plasmid integrated into the genome, were recovered. Colonies were screened by colony PCR, and mutants were confirmed by Sanger sequencing.” left out
The MIC was determined in broth culturing conditions in the presence of serially diluted antibiotic concentrations. […]

[7] = system: 3aa uORF of the lmo0919 ribo-regulator homolog; test: Ribosome profiling (Ribo-seq) of ribosome occupancy over the lmo0919 ribo-regulator uORF; type: cell-based; conditions: L. innocua; brief exposure to lincomycin versus control
Procedure: (§6) FIG. 14 is a graph illustrating lincomycin-dependent ribosome stalling in the lmo0919 ribo-regulator.
(§7) To characterize the effects of lincomycin on the interaction between the ribo-regulator and the ribosome levels of ribosome occupancy over the ribo-regulator in control and lincomycin-treated bacteria were measured using ribosome profiling (Ribo-seq) (23, 42). Strikingly, an ˜5 fold increase in ribosome occupancy over the 3aa uORFs in both L. monocytogenes and L. innocua was measured following brief exposure to lincomycin (FIG. 14) (23).

[8] = system: 3aa uORF of the lmo0919 ribo-regulator; test: as above; type: cell-based; conditions: L. monocytogenes; brief exposure to lincomycin versus control
Procedure: as §6, §7

[9] = system: lmo0919 5′UTR regulator (rli53); test: Antibiotic-dependent transcriptional readthrough by term-seq and RNA-seq; type: cell-based, L. monocytogenes; conditions: 15 minutes exposure to sublethal concentration
Procedure: as §1, §2

lmo0919 regulator = test: Lincomycin-dependent induction of lmo0919 in ErmC-expressing strain; type: cell-based, L. monocytogenes expressing ErmC; conditions: ErmC-expressing bacteria, ribosomes resistant to lincomycin
Procedure: FIG. 11 illustrates that the lmo0919 regulator senses ribosome inhibition. L. monocytogenes carrying the ErmC antibiotic resistance gene was assayed for lincomycin dependent induction. In the L. monocytogenes ErmC-expressing strain, in which ribosome are made immune to lincomycin via methylation of A2058 in the 23S rRNA, the lmo0919 regulator is unresponsive to the presence of the antibiotic (red).
The structural alterations in the lmo0919 ribo-regulator could either be mediated by direct binding of the antibiotic to the ribo-regulator (i.e., a riboswitch), or by attenuation, where the lincomycin-inhibited ribosomes stall on a uORF in the ribo-regulator, thus shifting the ribo-regulator structure from a “closed” to an “open” state. To differentiate between direct binding and ribosome-mediated regulation, lincomycin-dependent induction of lmo0919 in L. monocytogenes expressing the ErmC 23S rRNA methyltransferase was measured. In these bacteria the ribosomes are di-methylated at position A2058 of the 23S rRNA, rendering the ribosomes resistant to lincomycin.

[10] = system: EF2720 regulatory element; test: Antibiotic-dependent transcriptional readthrough by term-seq and RNA-seq; type: cell-based, E. faecalis
Procedure: as §1, §5

Compound	Sublethal concentration (highest antibiotics concentration that did not cause growth-rate inhibition) (B. subtilis) [µg/mL]	Sublethal concentrations of antibiotics used in this study (B. subtilis) [µg/mL]	Sublethal concentration (highest antibiotics concentration that did not cause growth-rate inhibition) (L. monocytogenes) [µg/mL]	Sublethal concentrations of antibiotics used in this study (L. monocytogenes) [µg/mL]	Sublethal concentration (highest antibiotics concentration that did not cause growth-rate inhibition) (E. faecalis) [µg/mL]	Sublethal concentrations of antibiotics used in this study (E. faecalis) [µg/mL]	Response of the lmo1652 regulatory element [1]	MIC (L. monocytogenes Wt) [µg/mL]	MIC [2] [µg/mL]	MIC [3] [µg/mL]	MIC [4] [µg/mL]	Response of msrC promoter and termination-based regulator [5]	MIC [6] [µg/mL]	Increase in ribosome occupancy over the 3aa uORF [7] [fold]	Increase in ribosome occupancy over the 3aa uORF [8] [fold]	Activation of the lmo0919 5′UTR regulator (readthrough) [9]	Responsiveness of the lmo0919 regulator (lmo0919 regulator)	Response of the EF2720 regulatory element [10]	Increase in sensitivity upon deletion of lmo0919 ([6]; Δlmo0919 versus wild type L. monocytogenes) [fold]
CC1(C)S[C@@H]2[C@H](NC(=O)[C@H](N)c3ccccc3)C(=O)N2[C@H]1C(=O)O [Ampicillin]	0.0625	0.0625	1	1	2	2													
CC[C@H](C)[C@H](N)C1=N[C@H](C(=O)N[C@@H](CC(C)C)C(=O)N[C@H](CCC(=O)O)C(=O)N[C@H](C(=O)N[C@H]2CCCCNC(=O)[C@H](CC(N)=O)NC(=O)[C@@H](CC(=O)O)NC(=O)[C@H](Cc3cnc[nH]3)NC(=O)[C@@H](Cc3ccccc3)NC(=O)[C@H]([C@@H](C)CC)NC(=O)[C@@H](CCCN)NC2=O)[C@@H](C)CC)CS1 [Bacitracin] ({Ileψ(thiazoline)Cys}-L[dE]IK[dOrn]I[dF]H[dD]N; lactam 4-C)	0.125	0.125	8	8	1	1													
O=C(N[C@H](CO)[C@H](O)c1ccc([N+](=O)[O-])cc1)C(Cl)Cl [Chloramphenicol]	0.2	0.2	0.4	0.4	0.4	0.4	responds	2 (≈ 6.19 µM)											
CC[C@H]1OC(=O)[C@H](C)[C@@H](O[C@H]2C[C@@](C)(OC)[C@@H](O)[C@H](C)O2)[C@H](C)[C@@H](O[C@@H]2O[C@H](C)C[C@H](N(C)C)[C@H]2O)[C@](C)(O)C[C@@H](C)C(=O)[C@H](C)[C@@H](O)[C@]1(C)O [Erythromycin]	0.01562	0.01562	0.03125	0.03125	0.5	0.5	responds	0.0312 (≈ 0.0426 µM)	0.0625 (≈ 0.0852 µM)	0.0312 (≈ 0.0426 µM)	0.0625 (≈ 0.0852 µM)	increase both the transcription initiation rate and readthrough into the gene	0.0625 (≈ 0.0852 µM)						
NC[C@H]1O[C@H](O[C@H]2[C@H](O)[C@@H](O[C@H]3O[C@H](CO)[C@@H](O)[C@H](N)[C@H]3O)[C@H](N)C[C@@H]2N)[C@H](O)[C@@H](O)[C@@H]1O [Kanamycin]	0.5	0.5	0.5	0.5	16	16													
CCC[C@@H]1C[C@@H](C(=O)N[C@@H]([C@H]2O[C@H](SC)[C@H](O)[C@@H](O)[C@H]2O)[C@@H](C)O)N(C)C1 [Lincomycin]	0.5	0.5	0.25	0.25	2	2	responds	1 (≈ 2.46 µM)	0.25 (≈ 0.615 µM)	8 (≈ 19.7 µM)	0.25 (≈ 0.615 µM)		0.25 (≈ 0.615 µM)	~5	~5	specific activation	no longer responsive	respond	4
